In patent US6218406A, “Farnesyl transferase inhibitors, their preparation, the pharmaceutical compositions which contain them and their use in the preparation of medicaments” (Aventis Pharma S.A., priority 1996, dated 2001):
Where a name gives a salt, the structure may show the parent alone.

System: HCT116 human colic carcinoma line
Experiment: In vivo antitumour test, human carcinoma grafted subcutaneously into mice
Conditions: 400 mg/kg/adm., orally
Protocol: The influence of the compounds according to the invention, administered to mice, on the growth of carcinomas of human origin grafted subcutaneously into these mice was studied.
On day 0 of the experiment, the mice received a tumour fragment (30-60 mg) bilaterally under the skin using a trocar. The bilateral implantation of the tumours ensured a more uniform tumour weight per mouse and thus made it possible to reduce the number of animals per group. The mice were then divided into the different treated and untreated groups.
The product was suspended in an aqueous solution at concentrations that ranged from […], corresponding to doses of 0.1 to 10,000 mg/kg.
The treatments or their possible excipient were administered every day orally, at a maximum volume of 0.2 ml, the duration of administration depending on the doubling time of the tumour.
The tumours were measured 2 to 3 times per week, using a calliper rule, according to two measurements in mm, which were subsequently converted into tumour weight according to the following formula:
tumour weight (mg)=Length (mm)×width^2 (mm^2)/2
An active product was a product which made it possible to limit the growth of the tumour after it had been administered.

SMILES	Tumour stabilization
C=C(C(=O)N1C[C@H]2[C@@]3(c4ccc(C)cc4)CC[C@H](c4ccccc43)[C@@]2(C(=O)O)C1)c1ccccc1OC (single isomer, unassigned) [Example 3, dextrorotatory enantiomer of (3aRS,4SR,9RS,9aRS)-4,9-ethano-2-[2-(2-methoxyphenyl)propenoyl]-9-(4-methylphenyl)-2,3,3a,4,9,9a-hexahydro-1H-benzo[f]isoindole-3a-carboxylic acid]	Tumour stabilization

Biological target: farnesyl transferase (Homo sapiens, UniProt P49354+P49356)
Experiment: Farnesyl transferase inhibition, [3H]-farnesylation of biotinylated K-ras C-terminal peptide (SPA assay)
Format: biochemical
Conditions: In vitro inhibitory activity (K-Ras) IC50, K-Ras substrate; 60 min at 37° C.; mean of two IC50 values

SMILES	IC50 [µM]
COc1ccccc1CC(=O)N1C[C@H]2[C@@]3(c4cccc(C)c4)CC[C@H](c4ccccc43)[C@@]2(C(=O)O)C1 (relative stereo) [Example 9, (3aRS,4SR,9SR,9aRS)-4,9-ethano-2-[(2-methoxyphenyl)acetyl]-9-(3-methylphenyl)-2,3,3a,4,9,9a-hexahydro-1H-benzo[f]isoindole-3a-carboxylic Acid]	0.055

Same assay, conditions: K-Ras substrate; 60 min at 37° C.; mean of two IC50 values; read-out: In vitro inhibitory activity (K-Ras) IC50

SMILES	IC50 [µM]
C=C(C(=O)N1C[C@H]2[C@@]3(c4ccc(C)cc4)CC[C@H](c4ccccc43)[C@@]2(C(=O)NCc2cccnc2)C1)c1ccccc1OC (single isomer, unassigned) [Example 19, Levorotatory Enantiomer of (3aRS,4SR,9SR,9aRS)-4,9-ethano-2-[2-(2-methoxyphenyl)propenoyl]-9-(4-methylphenyl)-2,3,3a,4,9,9a-hexahydro-1H-benzo[f]isoindole-3a-N-(3-pyridylmethyl)carboxamide]	0.181
C=C(C(=O)N1C[C@@H]2[C@]3(c4cccc(C#N)c4)CC[C@@H](c4ccccc43)[C@]2(C(=O)OC)C1)c1ccccc1OC (racemic) [Example 96, methyl (3aRS,4SR,9SR,9aRS)-9-(3-cyanophenyl)-4,9-ethano-2-[2-(2-methoxyphenyl)propenoyl]-2,3,3a,4,9,9a-hexahydro-1H-benzo[f]isoindole-3a-carboxylate]	0.955
C=C(C(=O)N1C[C@H]2[C@@]3(c4ccc(C)cc4)CC[C@H](c4ccccc43)[C@@]2(C(=O)NCc2ccncc2)C1)c1ccccc1OC (relative stereo) [Example 20, (3aRS,4SR,9SR,9aRS)-4,9-ethano-2-[2-(2-methoxyphenyl)propenoyl]-9-(4-methylphenyl)-2,3,3a,4,9,9a-hexahydro-1H-benzo[f]isoindole-3a-N-(4-pyridylmethyl)carboxamide]	0.14
C=C(C(=O)N1C[C@@H]2[C@]3(c4ccc(C(C)C)cc4)CC[C@@H](c4ccccc43)[C@]2(C(=O)O)C1)c1ccccc1OC (racemic) [Example 57, (3aRS,4SR,9SR,9aRS)-4,9-ethano-9-(4-isopropylphenyl)-2-[2-(2-methoxyphenyl)propenoyl]-2,3,3a,4,9,9a-hexahydro-1H-benzo[f]isoindole-3a-carboxylic Acid]	0.28
C=C(C(=O)N1C[C@@H]2[C@]3(c4cccc(C)c4)CC[C@@H](c4ccccc43)[C@]2(C(=O)OC)C1)c1ccccc1OC (racemic) [Example 68, methyl (3aRS,4SR,9SR,9aRS)-4,9-ethano-2-[2-(2-methoxyphenyl)propenoyl]-9-(3-methylphenyl)-2,3,3a,4,9,9a-hexahydro-1H-benzo[f]isoindole-3a-carboxylate]	0.431
C=C(C(=O)N1C[C@@H]2[C@]3(c4ccc(C)cc4)CC[C@@H](c4ccccc43)[C@]2(C(=O)NO)C1)c1ccccc1OC (racemic) [Example 16, (3aRS,4SR,9SR,9aRS)-4,9-ethano-2-[2-(2-methoxyphenyl)propenoyl]-9-(4-methylphenyl)-2,3,3a,4,9,9a-hexahydro-1H-benzo[f]isoindole-3a-hydroxamic acid]	0.36
C=C(C(=O)N1C[C@H]2[C@@]3(c4ccc(C)s4)CC[C@@H](c4ccccc43)[C@]2(C(=O)OC)C1)c1ccccc1OC (racemic) [Example 47, methyl (3aRS,4SR,9SR,9aRS)-4,9-ethano-2-[2-(2-methoxyphenyl)propenoyl]-9-(5-methyl-2-thienyl)-2,3,3a,4,9,9a-hexahydro-1H-benzo[f]isoindole-3a-carboxylate]	0.207

Further lines, results first:

IC50 [µM]	SMILES
0.028	C=C(C(=O)N1C[C@H]2[C@@]3(c4ccc(C)cc4)CC[C@H](c4ccccc43)[C@@]2(C(=O)O)C1)c1ccccc1OC (single isomer, unassigned) [Example 3, dextrorotatory enantiomer of (3aRS,4SR,9RS,9aRS)-4,9-ethano-2-[2-(2-methoxyphenyl)propenoyl]-9-(4-methylphenyl)-2,3,3a,4,9,9a-hexahydro-1H-benzo[f]isoindole-3a-carboxylic acid]
0.045	C=C(C(=O)N1C[C@H]2[C@@]3(c4ccc(OC)cc4)CC[C@H](c4ccccc43)[C@@]2(C(=O)NNc2cccnc2)C1)c1ccccc1OC (relative stereo) [Example 79, (3aRS,4SR,9SR,9aRS)-4,9-ethano-9-(4-methoxyphenyl)-2-[2-(2-methoxyphenyl)propenoyl]-2,3,3a,4,9,9a-hexahydro-1H-benzo[f]isoindole-3a-N'-(3-pyridyl)carbohydrazide]
0.132	C=C(C(=O)N1C[C@@H]2[C@]3(c4ccc5ccccc5c4)CC[C@@H](c4ccccc43)[C@]2(C(=O)O)C1)c1ccccc1OC (relative stereo) [Example 46, sodium salt of (3aRS,4SR,9SR,9aRS)-4,9-ethano-2-[2-(2-methoxyphenyl)propenoyl]-9-(2-naphthyl)-2,3,3a,4,9,9a-hexahydro-1H-benzo[f]isoindole-3a-carboxylic Acid]
0.088	COc1ccccc1CC(=O)N1C[C@@H]2[C@]3(c4cc(C)c(C)c(C)c4)CC[C@@H](c4ccccc43)[C@]2(C(=O)O)C1 (racemic) [Example 37, (3aRS,4SR,9SR,9aRS)-4,9-ethano-2-[(2-methoxyphenyl)acetyl]-9-(3,4,5-trimethylphenyl)-2,3,3a,4,9,9a-hexahydro-1H-benzo[f]isoindole-3a-carboxylic Acid]
0.106	C=C(C(=O)N1C[C@@H]2[C@]3(c4ccc5c(c4)OCCO5)CC[C@@H](c4ccccc43)[C@]2(C(=O)O)C1)c1ccccc1OC (racemic) [Example 32, (3aRS,4SR,9SR,9aRS)-9-(2,3-dihydro-1,4-benzodioxin-6-yl)-4,9-ethano-2-[2-(2-methoxyphenyl)-propenoyl]-2,3,3a,4,9,9a-hexahydro-1H-benzo[f]isoindole-3a-carboxylic Acid]
0.068	C=C(C(=O)N1C[C@H]2[C@@]3(c4cccc(Cl)c4)CC[C@H](c4ccccc43)[C@@]2(C(=O)NCc2cccnc2)C1)c1ccccc1OC (relative stereo) [Example 90, (3aRS,4SR,9SR,9aRS)-9-(3-chlorophenyl)-4,9-ethano-2-[2-(2-methoxyphenyl)propenoyl]-2,3,3a,4,9,9a-hexahydro-1H-benzo[f]isoindole-3a-N-(3-pyridylmethyl)carboxamide]
< 0.019	C=C(C(=O)N1C[C@H]2[C@@]3(c4ccc(C)cc4)CC[C@H](c4c(OC)cccc43)[C@@]2(C(=O)O)C1)c1ccccc1OC (single isomer, unassigned) [Example 100, Dextrorotatory Enantiomer of (3aRS,4SR,9SR,9aRS)-4,9-ethano-5-methoxy-2-[2-(2-methoxyphenyl)propenoyl]-9-(4-methylphenyl)-2,3,3a,4,9,9a-hexahydro-1H-benzo[f]isoindole-3a-carboxylic Acid]
0.028	C=C(C(=O)N1C[C@H]2[C@@]3(c4cccc(N(C)C)c4)CC[C@H](c4ccccc43)[C@@]2(C(=O)O)C1)c1ccccc1OC (relative stereo) [Example 92, (3aRS,4SR,9SR,9aRS)-9-(3-N,N-dimethylaminophenyl)-4,9-ethano-2-[2-(2-methoxyphenyl)propenoyl]-2,3,3a,4,9,9a-hexahydro-1H-benzo[f]isoindole-3a-carboxylic Acid]
0.098	C=C(C(=O)N1C[C@@H]2[C@]3(c4ccc(C)c(C)c4)CC[C@@H](c4ccccc43)[C@]2(C(=O)O)C1)c1ccccc1OC (racemic) [Example 72, (3aRS,4SR,9SR,9aRS)-9-(3,4-dimethylphenyl)-4,9-ethano-2-[2-(2-methoxyphenyl)propenoyl]-2,3,3a,4,9,9a-hexahydro-1H-benzo[f]isoindole-3a-carboxylic Acid]
